In PubChem BioAssay (NCI):
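96-well plates; 48 h exposure; 5 concentrations. Endpoints by linear interpolation between flanking doses. Not reached: highest tested concentration assigned. TGI: total growth inhibition.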

Experiments:
Assay in all cases: DTP human tumour cell line panel, 48 h
786-0 renal = system: 786-0 renal
A549 NSCLC = system: A549 NSCLC
ACHN renal = system: ACHN renal
CCRF-CEM leukemia = system: CCRF-CEM leukemia
COLO 205 colon = system: COLO 205 colon
DLD-1 colon = system: DLD-1 colon
DMS 114 small cell lung = system: DMS 114 small cell lung
DMS 273 small cell lung = system: DMS 273 small cell lung
EKVX NSCLC = system: EKVX NSCLC
HCC-2998 colon = system: HCC-2998 colon
HCT-116 colon = system: HCT-116 colon
HCT-15 colon = system: HCT-15 colon
HL-60(TB) leukemia = system: HL-60(TB) leukemia
HOP-62 NSCLC = system: HOP-62 NSCLC
HT29 colon = system: HT29 colon
IGROV1 ovarian = system: IGROV1 ovarian
K-562 leukemia = system: K-562 leukemia
KM12 colon = system: KM12 colon
KM20L2 colon = system: KM20L2 colon
LOX IMVI melanoma = system: LOX IMVI melanoma
LXFL 529 NSCLC = system: LXFL 529 NSCLC
M14 melanoma = system: M14 melanoma
M19-MEL melanoma = system: M19-MEL melanoma
MALME-3M melanoma = system: MALME-3M melanoma
MOLT-4 leukemia = system: MOLT-4 leukemia
NCI-H226 lung = system: NCI-H226 lung
NCI-H23 lung = system: NCI-H23 lung
NCI-H460 lung = system: NCI-H460 lung
NCI-H522 lung = system: NCI-H522 lung
OVCAR-3 ovarian = system: OVCAR-3 ovarian
OVCAR-8 ovarian = system: OVCAR-8 ovarian
RPMI-8226 leukemia = system: RPMI-8226 leukemia
RXF 393 renal = system: RXF 393 renal
SF-268 CNS = system: SF-268 CNS
SF-295 CNS = system: SF-295 CNS
SF-539 CNS = system: SF-539 CNS
SK-MEL-28 melanoma = system: SK-MEL-28 melanoma
SK-OV-3 ovarian = system: SK-OV-3 ovarian
SN12C renal = system: SN12C renal
SNB-19 CNS = system: SNB-19 CNS
SNB-75 CNS = system: SNB-75 CNS
SNB-78 CNS = system: SNB-78 CNS
SR leukemia = system: SR leukemia
SW-620 colon = system: SW-620 colon
TK-10 renal = system: TK-10 renal
U251 CNS = system: U251 CNS
UACC-257 melanoma = system: UACC-257 melanoma
UACC-62 melanoma = system: UACC-62 melanoma
UO-31 renal = system: UO-31 renal
A498 renal = system: A498 renal
CAKI-1 renal = system: CAKI-1 renal
HOP-92 NSCLC = system: HOP-92 NSCLC
OVCAR-5 ovarian = system: OVCAR-5 ovarian
SK-MEL-2 melanoma = system: SK-MEL-2 melanoma
SK-MEL-5 melanoma = system: SK-MEL-5 melanoma
BT-549 breast = system: BT-549 breast
DU-145 prostate = system: DU-145 prostate
HS 578T breast = system: HS 578T breast
MCF7 breast = system: MCF7 breast
MDA-MB-231 breast = system: MDA-MB-231 breast
MDA-MB-435 = system: MDA-MB-435
MDA-N = system: MDA-N
NCI/ADR-RES ovarian = system: NCI/ADR-RES ovarian
OVCAR-4 ovarian = system: OVCAR-4 ovarian
PC-3 prostate = system: PC-3 prostate
T-47D breast = system: T-47D breast

For `CCn1cnc2c(=S)nc(N)[nH]c21`, the TGI (786-0 renal) was > 100 µM, the TGI (A549 NSCLC) was > 100 µM and the TGI (ACHN renal) was > 100 µM. For the same compound, the TGI (CCRF-CEM leukemia) was > 100 µM, the TGI (COLO 205 colon) was > 100 µM and the TGI (DLD-1 colon) was > 100 µM. For the same compound, the TGI (DMS 114 small cell lung) was > 100 µM, the TGI (DMS 273 small cell lung) was > 100 µM and the TGI (EKVX NSCLC) was > 100 µM. For the same compound, the TGI (HCC-2998 colon) was > 100 µM, the TGI (HCT-116 colon) was > 100 µM and the TGI (HCT-15 colon) was > 100 µM. For the same compound, the TGI (HL-60(TB) leukemia) was > 100 µM, the TGI (HOP-62 NSCLC) was > 100 µM and the TGI (HT29 colon) was > 100 µM. The TGI (IGROV1 ovarian) was > 100 µM, the TGI (K-562 leukemia) was > 100 µM and the TGI (KM12 colon) was > 100 µM. For the same compound, the TGI (KM20L2 colon) was > 100 µM, the TGI (LOX IMVI melanoma) was > 100 µM and the TGI (LXFL 529 NSCLC) was > 100 µM. The TGI (M14 melanoma) was > 100 µM, the TGI (M19-MEL melanoma) was > 100 µM and the TGI (MALME-3M melanoma) was > 100 µM. For the same compound, the TGI (MOLT-4 leukemia) was > 100 µM, the TGI (NCI-H226 lung) was > 100 µM and the TGI (NCI-H23 lung) was > 100 µM. The TGI (NCI-H460 lung) was > 100 µM, the TGI (NCI-H522 lung) was > 100 µM and the TGI (OVCAR-3 ovarian) was > 100 µM. The TGI (OVCAR-8 ovarian) was > 100 µM, the TGI (RPMI-8226 leukemia) was > 100 µM and the TGI (RXF 393 renal) was > 100 µM. The TGI (SF-268 CNS) was > 100 µM, the TGI (SF-295 CNS) was > 100 µM and the TGI (SF-539 CNS) was > 100 µM. The TGI (SK-MEL-28 melanoma) was > 100 µM, the TGI (SK-OV-3 ovarian) was > 100 µM and the TGI (SN12C renal) was > 100 µM. For the same compound, the TGI (SNB-19 CNS) was > 100 µM, the TGI (SNB-75 CNS) was > 100 µM and the TGI (SNB-78 CNS) was > 100 µM. The TGI (SR leukemia) was > 100 µM, the TGI (SW-620 colon) was > 100 µM and the TGI (TK-10 renal) was > 100 µM. The TGI (U251 CNS) was > 100 µM, the TGI (UACC-257 melanoma) was > 100 µM and the TGI (UACC-62 melanoma) was > 100 µM. For the same compound, the TGI (UO-31 renal) was > 100 µM.
For `Cc1nc(-c2nc(C)c(C(=O)NNC(=O)C[n+]3ccccc3)s2)sc1C(=O)NNC(=O)C[n+]1ccccc1`, the TGI (786-0 renal) was > 100 µM, the TGI (A498 renal) was > 100 µM and the TGI (A549 NSCLC) was > 100 µM. For the same compound, the TGI (ACHN renal) was > 100 µM, the TGI (CAKI-1 renal) was 85.1 µM and the TGI (CCRF-CEM leukemia) was > 100 µM. The TGI (COLO 205 colon) was > 100 µM, the TGI (DLD-1 colon) was > 100 µM and the TGI (DMS 114 small cell lung) was > 100 µM. The TGI (EKVX NSCLC) was > 100 µM, the TGI (HCC-2998 colon) was > 100 µM and the TGI (HCT-116 colon) was > 100 µM. The TGI (HCT-15 colon) was > 100 µM, the TGI (HL-60(TB) leukemia) was > 100 µM and the TGI (HOP-62 NSCLC) was > 100 µM. For the same compound, the TGI (HOP-92 NSCLC) was > 100 µM, the TGI (HT29 colon) was > 100 µM and the TGI (IGROV1 ovarian) was > 100 µM. The TGI (K-562 leukemia) was > 100 µM, the TGI (KM12 colon) was > 100 µM and the TGI (KM20L2 colon) was > 100 µM. For the same compound, the TGI (LOX IMVI melanoma) was > 100 µM, the TGI (LXFL 529 NSCLC) was > 100 µM and the TGI (M14 melanoma) was > 100 µM. For the same compound, the TGI (M19-MEL melanoma) was > 100 µM, the TGI (MALME-3M melanoma) was > 100 µM and the TGI (MOLT-4 leukemia) was > 100 µM. For the same compound, the TGI (NCI-H226 lung) was > 100 µM, the TGI (NCI-H23 lung) was > 100 µM and the TGI (NCI-H460 lung) was > 100 µM. The TGI (OVCAR-3 ovarian) was > 100 µM, the TGI (OVCAR-5 ovarian) was > 100 µM and the TGI (OVCAR-8 ovarian) was > 100 µM. The TGI (RPMI-8226 leukemia) was > 100 µM, the TGI (RXF 393 renal) was > 100 µM and the TGI (SF-268 CNS) was > 100 µM. For the same compound, the TGI (SF-295 CNS) was > 100 µM, the TGI (SF-539 CNS) was > 100 µM and the TGI (SK-MEL-2 melanoma) was > 100 µM. For the same compound, the TGI (SK-MEL-28 melanoma) was > 100 µM, the TGI (SK-MEL-5 melanoma) was > 100 µM and the TGI (SK-OV-3 ovarian) was > 100 µM. For the same compound, the TGI (SN12C renal) was > 100 µM, the TGI (SNB-19 CNS) was > 100 µM and the TGI (SNB-75 CNS) was 84.3 µM. For the same compound, the TGI (SNB-78 CNS) was > 100 µM, the TGI (SW-620 colon) was > 100 µM and the TGI (TK-10 renal) was > 100 µM. For the same compound, the TGI (U251 CNS) was > 100 µM, the TGI (UACC-257 melanoma) was > 100 µM and the TGI (UACC-62 melanoma) was > 100 µM. It also gave a TGI (UO-31 renal) of 80.5 µM.
With `O=C1NC2(CCN(CCc3ccccc3)CC2)Oc2ccccc21` the TGI (786-0 renal) was > 100 µM, the TGI (A498 renal) was > 100 µM and the TGI (A549 NSCLC) was > 100 µM. For the same compound, the TGI (ACHN renal) was > 100 µM, the TGI (BT-549 breast) was > 100 µM and the TGI (CAKI-1 renal) was > 100 µM. The TGI (CCRF-CEM leukemia) was > 100 µM, the TGI (COLO 205 colon) was > 100 µM and the TGI (DU-145 prostate) was > 100 µM. For the same compound, the TGI (EKVX NSCLC) was > 100 µM, the TGI (HCC-2998 colon) was > 100 µM and the TGI (HCT-116 colon) was > 100 µM. For the same compound, the TGI (HCT-15 colon) was > 100 µM, the TGI (HL-60(TB) leukemia) was > 100 µM and the TGI (HOP-62 NSCLC) was > 100 µM. The TGI (HOP-92 NSCLC) was 69.4 µM, the TGI (HS 578T breast) was 50.7 µM and the TGI (HT29 colon) was > 100 µM. For the same compound, the TGI (IGROV1 ovarian) was > 100 µM, the TGI (K-562 leukemia) was > 100 µM and the TGI (KM12 colon) was > 100 µM. For the same compound, the TGI (LOX IMVI melanoma) was > 100 µM, the TGI (M14 melanoma) was 49.9 µM and the TGI (MALME-3M melanoma) was > 100 µM. For the same compound, the TGI (MCF7 breast) was > 100 µM, the TGI (MDA-MB-231 breast) was > 100 µM and the TGI (MDA-MB-435) was > 100 µM. For the same compound, the TGI (MDA-N) was > 100 µM, the TGI (MOLT-4 leukemia) was > 100 µM and the TGI (NCI-H226 lung) was > 100 µM. The TGI (NCI-H23 lung) was > 100 µM, the TGI (NCI-H460 lung) was > 100 µM and the TGI (NCI-H522 lung) was > 100 µM. The TGI (NCI/ADR-RES ovarian) was > 100 µM, the TGI (OVCAR-3 ovarian) was > 100 µM and the TGI (OVCAR-4 ovarian) was > 100 µM. For the same compound, the TGI (OVCAR-5 ovarian) was > 100 µM, the TGI (OVCAR-8 ovarian) was > 100 µM and the TGI (PC-3 prostate) was > 100 µM. For the same compound, the TGI (RPMI-8226 leukemia) was > 100 µM, the TGI (RXF 393 renal) was > 100 µM and the TGI (SF-268 CNS) was > 100 µM. For the same compound, the TGI (SF-295 CNS) was > 100 µM, the TGI (SF-539 CNS) was > 100 µM and the TGI (SK-MEL-2 melanoma) was > 100 µM. The TGI (SK-MEL-28 melanoma) was > 100 µM, the TGI (SK-MEL-5 melanoma) was 27.8 µM and the TGI (SK-OV-3 ovarian) was > 100 µM. The TGI (SN12C renal) was > 100 µM, the TGI (SNB-19 CNS) was > 100 µM and the TGI (SNB-75 CNS) was > 100 µM. For the same compound, the TGI (SR leukemia) was > 100 µM, the TGI (SW-620 colon) was > 100 µM and the TGI (T-47D breast) was > 100 µM. For the same compound, the TGI (TK-10 renal) was > 100 µM, the TGI (U251 CNS) was > 100 µM and the TGI (UACC-257 melanoma) was > 100 µM. The TGI (UACC-62 melanoma) was > 100 µM and the TGI (UO-31 renal) was > 100 µM.
